Data as given in paper PMC7490411 (Signal Transduction and Targeted Therapy, 2020).

How the values were obtained:
[1] = system: BRK; assay: KINOMEscan; format: binding; conditions: 1000 nM
[2] = system: AURKB; assay: KINOMEscan; format: binding; conditions: 1000 nM
[3] = system: MEK4; assay: KINOMEscan; format: binding; conditions: 1000 nM
[4] = system: RIPK1; assay: KINOMEscan; format: binding; conditions: 1000 nM
[5] = system: YANK3; assay: KINOMEscan; format: binding; conditions: 1000 nM
[6] = system: BMPR1A; assay: KINOMEscan; format: binding; conditions: 1000 nM
[7] = system: STK16; assay: KINOMEscan; format: binding; conditions: 1000 nM
[8] = system: ZAK; assay: KINOMEscan; format: binding; conditions: 1000 nM
[9] = system: PLK1; assay: KINOMEscan; format: binding; conditions: 1000 nM
[10] = system: AKT3; assay: KINOMEscan; format: binding; conditions: 1000 nM
[11] = system: MARK3; assay: KINOMEscan; format: binding; conditions: 1000 nM
[12] = system: PIM2; assay: KINOMEscan; format: binding; conditions: 1000 nM
[13] = system: PRKD3; assay: KINOMEscan; format: binding; conditions: 1000 nM
[14] = system: FLT3(D835H); assay: KINOMEscan; format: binding; conditions: 1000 nM
[15] = system: PLK3; assay: KINOMEscan; format: binding; conditions: 1000 nM
[16] = system: ABL1(H396P)-phosphorylated; assay: KINOMEscan; format: binding; conditions: 1000 nM
[17] = system: PFTK1; assay: KINOMEscan; format: binding; conditions: 1000 nM
[18] = system: PIK3CA(C420R); assay: KINOMEscan; format: binding; conditions: 1000 nM
[19] = system: OSR1; assay: KINOMEscan; format: binding; conditions: 1000 nM
[20] = system: SNRK; assay: KINOMEscan; format: binding; conditions: 1000 nM
[21] = drug enrichment in the tumor; format: in vivo, mouse; conditions: 100 mg/kg
[22] = system: JAK2(JH1domain-catalytic); assay: KINOMEscan; format: binding; conditions: 1000 nM
[23] = system: ACVR2B; assay: KINOMEscan; format: binding; conditions: 1000 nM
[24] = system: TTK; assay: KINOMEscan; format: binding; conditions: 1000 nM
[25] = system: CDK4; assay: KINOMEscan; format: binding; conditions: 1000 nM
[26] = system: DDR2; assay: KINOMEscan; format: binding; conditions: 1000 nM
[27] = system: ERK3; assay: KINOMEscan; format: binding; conditions: 1000 nM
[28] = system: 468 kinases/mutants; assay: KINOMEscan kinome-wide selectivity profiling; format: binding; conditions: 1 μM
Text: Here, we report the discovery of a novel covalent BTK inhibitor, CHMFL-BTK-85 (abbreviated as compd. 85) (chemical structure shown in Fig. 1a), which achieves high potency against BTK and selectivity over other protein kinases. […] To further confirm that compd. 85 could covalently bind to wide-type native BTK in cell, we then conducted a target-engagement assay using the biotinylated analog of compd. 85, i.e., CHMFL-BTK-85B (Supplementary Fig. S2), in REC-1 cell which expresses native BTK kinase. […] To further investigate the selectivity of compd. 85 in the kinome, we then tested it among 468 kinases/mutants with KINOMEscan^TM technology.

[29] = molecular target: T1, BMX (Homo sapiens, UniProt P51813); assay: KINOMEscan; format: binding; conditions: 1000 nM
T1 construct: purchased Invitrogen (Carlsbad, CA, USA)
T1 sequence (P51813 1-675): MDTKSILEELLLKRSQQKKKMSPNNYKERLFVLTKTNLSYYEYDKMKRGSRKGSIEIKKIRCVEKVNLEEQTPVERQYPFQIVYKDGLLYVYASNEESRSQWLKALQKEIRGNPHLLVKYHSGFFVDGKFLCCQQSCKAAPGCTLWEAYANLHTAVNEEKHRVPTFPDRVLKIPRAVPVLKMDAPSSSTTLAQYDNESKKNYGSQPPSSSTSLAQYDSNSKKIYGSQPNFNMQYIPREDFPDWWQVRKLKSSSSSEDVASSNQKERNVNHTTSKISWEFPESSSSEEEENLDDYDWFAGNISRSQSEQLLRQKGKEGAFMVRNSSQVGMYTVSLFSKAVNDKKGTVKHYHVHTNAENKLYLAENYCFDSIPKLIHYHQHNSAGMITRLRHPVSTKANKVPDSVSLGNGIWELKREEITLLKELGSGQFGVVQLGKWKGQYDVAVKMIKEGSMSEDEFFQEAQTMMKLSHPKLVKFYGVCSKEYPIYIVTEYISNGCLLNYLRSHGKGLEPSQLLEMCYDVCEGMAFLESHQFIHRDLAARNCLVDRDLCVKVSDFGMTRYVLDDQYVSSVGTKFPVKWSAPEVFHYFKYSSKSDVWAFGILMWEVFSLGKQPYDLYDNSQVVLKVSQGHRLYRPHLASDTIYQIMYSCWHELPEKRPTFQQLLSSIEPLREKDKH

[30] = system: MLK1; assay: KINOMEscan; format: binding; conditions: 1000 nM
[31] = system: BMPR2; assay: KINOMEscan; format: binding; conditions: 1000 nM
[32] = system: TEC; assay: KINOMEscan; format: binding; conditions: 1000 nM
[33] = system: PKAC-beta; assay: KINOMEscan; format: binding; conditions: 1000 nM
[34] = system: INSR; assay: KINOMEscan; format: binding; conditions: 1000 nM
[35] = system: ABL1(F317L)-phosphorylated; assay: KINOMEscan; format: binding; conditions: 1000 nM
[36] = system: FLT3(ITD,F691L); assay: KINOMEscan; format: binding; conditions: 1000 nM
[37] = system: PRP4; assay: KINOMEscan; format: binding; conditions: 1000 nM
[38] = system: EPHA7; assay: KINOMEscan; format: binding; conditions: 1000 nM
[39] = system: PIP5K2C; assay: KINOMEscan; format: binding; conditions: 1000 nM
[40] = system: KIT(L576P); assay: KINOMEscan; format: binding; conditions: 1000 nM
[41] = system: HUNK; assay: KINOMEscan; format: binding; conditions: 1000 nM
[42] = system: MAPKAPK2; assay: KINOMEscan; format: binding; conditions: 1000 nM

With C=CC(=O)Nc1cc(Nc2cc(-c3cccc(NC(=O)c4cc5c(s4)CCCC5)c3C)cn(C)c2=O)ccc1N1CCN(CC)CC1 [CHMFL-BTK-85] the “Percent Control” value [1] was 21%, the “Percent Control” value [2] was 100% and the “Percent Control” value [3] was 100%. For the same compound, the “Percent Control” value [4] was 97%, the “Percent Control” value [5] was 89% and the “Percent Control” value [6] was 97%. The “Percent Control” value [7] was 68%, the “Percent Control” value [8] was 99% and the “Percent Control” value [9] was 100%. For the same compound, the “Percent Control” value [10] was 97%, the “Percent Control” value [11] was 100% and the “Percent Control” value [12] was 87%. The “Percent Control” value [13] was 100%, the “Percent Control” value [14] was 100% and the “Percent Control” value [15] was 99%. For the same compound, the “Percent Control” value [16] was 85%, the “Percent Control” value [17] was 80% and the “Percent Control” value [18] was 98%. The “Percent Control” value [19] was 100%, the “Percent Control” value [20] was 86% and the “concentration in the tumor” value [21] was 2370 nM. The “Percent Control” value [22] was 100%, the “Percent Control” value [23] was 99% and the “Percent Control” value [24] was 54%. For the same compound, the “Percent Control” value [25] was 100%, the “Percent Control” value [26] was 100% and the “Percent Control” value [27] was 100%. The “S Score (1)” value [28] was 0.00, the percent of control binding at 1 µM [29] was 59% and the “Percent Control” value [30] was 81%. For the same compound, the “Percent Control” value [31] was 100%, the “Percent Control” value [32] was 100% and the “Percent Control” value [33] was 80%. The “Percent Control” value [34] was 96%, the “Percent Control” value [35] was 100% and the “Percent Control” value [36] was 77%. The “Percent Control” value [37] was 92%, the “Percent Control” value [38] was 100% and the “Percent Control” value [39] was 85%. The “Percent Control” value [40] was 79%, the “Percent Control” value [41] was 100% and the “Percent Control” value [42] was 86%.
